Values quoted from earlier work as cited in patent US20020025310A1, “Compositions and methods for promoting healthy joints” (priority 2000, published 2002).

Key:
PARS = PARS (Homo sapiens, UniProt P09874); details: 100 mg/day supplementation, smokers with varying levels of cytogenic damage
[1] = 200 to 400 mg/day
[2] = 800 mg orally, heavy aerobic exercise
isolated alveolar cells = details: animal studies
[3] = COPD patients, 600 mg per day oral, compared to patients without NAC
[4] = tested on: complex I, IV, and V in hepatic mitochondria; details: senescent mice, compared to controls without NAC supplementation

Sequence of PARS (P09874 whole entry): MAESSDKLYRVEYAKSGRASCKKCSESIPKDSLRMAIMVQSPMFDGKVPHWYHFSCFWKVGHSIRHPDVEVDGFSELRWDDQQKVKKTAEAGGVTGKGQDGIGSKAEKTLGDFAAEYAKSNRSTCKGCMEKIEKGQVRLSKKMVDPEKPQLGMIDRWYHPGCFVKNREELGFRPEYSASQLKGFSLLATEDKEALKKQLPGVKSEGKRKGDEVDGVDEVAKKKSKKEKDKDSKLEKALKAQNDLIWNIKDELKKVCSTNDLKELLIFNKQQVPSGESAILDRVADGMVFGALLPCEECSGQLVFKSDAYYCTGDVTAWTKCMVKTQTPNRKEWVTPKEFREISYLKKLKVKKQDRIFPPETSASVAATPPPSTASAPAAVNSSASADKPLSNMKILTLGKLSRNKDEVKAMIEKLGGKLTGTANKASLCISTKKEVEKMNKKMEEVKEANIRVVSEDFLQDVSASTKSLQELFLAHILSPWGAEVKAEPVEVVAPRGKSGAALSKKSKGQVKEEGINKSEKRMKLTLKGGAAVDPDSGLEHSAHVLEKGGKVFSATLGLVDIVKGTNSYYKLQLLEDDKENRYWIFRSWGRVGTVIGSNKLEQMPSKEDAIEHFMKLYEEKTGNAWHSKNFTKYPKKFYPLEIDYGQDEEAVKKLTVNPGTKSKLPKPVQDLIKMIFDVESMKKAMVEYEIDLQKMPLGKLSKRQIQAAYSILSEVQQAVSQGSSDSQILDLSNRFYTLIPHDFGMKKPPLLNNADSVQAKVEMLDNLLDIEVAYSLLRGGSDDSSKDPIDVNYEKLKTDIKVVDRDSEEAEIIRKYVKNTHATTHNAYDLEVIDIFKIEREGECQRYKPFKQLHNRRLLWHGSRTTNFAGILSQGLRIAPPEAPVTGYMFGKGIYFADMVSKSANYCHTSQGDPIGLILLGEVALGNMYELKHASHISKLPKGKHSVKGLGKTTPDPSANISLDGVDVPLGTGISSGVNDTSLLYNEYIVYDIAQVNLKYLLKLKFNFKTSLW

| SMILES | PARS activity (PARS) | glutathione disulfide-to-reduced glutathione ratio [1] | intercellular glutathione levels [1] | individuals reporting side effects (400 to 6400 mg/m^2/day in divided doses) | significant side effects (400 to 6400 mg/m^2/day in divided doses, doubled each month) | dose exceeded before any difficulty was reported (individuals reporting side effects) [mg/m^2] | exercise-associated damage in leukocyte DNA [2] | glutathione-to-glutathione disulfide ratio [2] | plasma lipid peroxide level [2] | intracellular ATP depletion after oxidant exposure (isolated alveolar cells) | bacterial-positive cultures [3] | clinical course [3] | use of bronchodilators [3] | specific activities of complex I, IV, and V in hepatic mitochondria [4] |
| --- | --- | --- | --- | --- | --- | --- | --- | --- | --- | --- | --- | --- | --- | --- |
| O=C(O)c1cccnc1 [nicotinic acid] | did not result in a significant reduction |  |  |  |  |  |  |  |  |  |  |  |  |  |
| CC(=O)N[C@@H](CS)C(=O)O [NAC, N-acetylcysteine] |  | reduction | significant increase | 13 of 26 | bad taste and GI disturbances | > 800 | less exercise-associated damage in leukocyte DNA | increased | lowered | helps protect | fewer bacterial-positive cultures | improved clinical course | reduced use of bronchodilators | significantly higher |
